The results in this text go back to patent US9517244B2, “Therapeutic combinations for use in neoplasia” (University of Florida Research Foundation, Inc., priority 2011, dated 2016).

The structures appear in SMILES notation. Where two headings read alike, the source gives them in different places.

Test systems include PANC1; BxPC3; HPAC; Mia-PaCa2; AsPC1.
What all share (test): MTT assay, pancreatic cancer cell line
Holding throughout (assay type): cell-based, human
What all share (details): 72 h

One may read the IC50 as the concentration that inhibits the measured activity by half. For `Nc1ccn([C@@H]2O[C@H](CO)[C@@H](O)C2(F)F)c(=O)n1` [dFdC, gemcitabine], the IC50 in the assay with PANC1 (Homo sapiens, PANC-1, PANC1 (dFdC-resistant), single agent, read-out: IC50) worked out at 11.6 ± 2.93 µM; with BxPC3 (Homo sapiens, BXPC-3, BxPC3 (dFdC-sensitive), single agent, read-out: IC50), 0.07 ± 0.005 µM; with HPAC (Homo sapiens, HPAC (dFdC-sensitive), single agent, read-out: IC50), 0.07 ± 0.007 µM; in the assay on Mia-PaCa2 (Homo sapiens, MIA PaCa-2, Mia-PaCa2 (dFdC-resistant), single agent, read-out: IC50) it was 11.5 ± 2.9 µM; with AsPC1 (Homo sapiens, AsPC1 (dFdC-resistant), single agent, read-out: IC50), 1.83 ± 0.47 µM.

Regarding `[NH2][Pt]([NH2])([Cl])[Cl]` [CDDP, cisplatin], the concentration for half-maximal inhibition (IC50) with PANC1 (PANC1, NSC-30049 0 μM, 1 μM dFdC, read-out: IC50 of CDDP) worked out at 9.87 ± 0.8 µM; in the assay with PANC1 (PANC1, NSC-30049 0 μM, no dFdC, read-out: IC50 of CDDP), 9.55 ± 0.94 µM; in the assay on PANC1 (PANC1, NSC-30049 0.5 μM, 1 μM dFdC, read-out: IC50 of CDDP), 1.06 ± 0.39 µM; in the assay on PANC1 (PANC1, NSC-30049 0.5 μM, no dFdC, read-out: IC50 of CDDP), 9 ± 0.03 µM; in the assay with PANC1 (PANC1, NSC-30049 1.0 μM, 1 μM dFdC, read-out: IC50 of CDDP), 1.03 ± 0.36 µM; with PANC1 (PANC1, NSC-30049 1.0 μM, no dFdC, read-out: IC50 of CDDP) it was 7.8 ± 0.5 µM. In addition, the IC50 came to 0.12 ± 0.09 µM in the assay on PANC1 (PANC1, NSC-30049 2.5 μM, 1 μM dFdC, read-out: IC50 of CDDP); 2.04 ± 0.41 µM with PANC1 (PANC1, NSC-30049 2.5 μM, no dFdC, read-out: IC50 of CDDP); 2.02 ± 0.35 µM in the assay on BxPC3 (BxPC3, NSC-30049 0 μM, 0.025 μM dFdC, read-out: IC50 of CDDP); 1.96 ± 0.08 µM with BxPC3 (BxPC3, NSC-30049 0 μM, no dFdC, read-out: IC50 of CDDP); 0.94 ± 0.06 µM in the assay with BxPC3 (BxPC3, NSC-30049 0.5 μM, 0.025 μM dFdC, read-out: IC50 of CDDP); 1.53 ± 0.09 µM in the assay with BxPC3 (BxPC3, NSC-30049 0.5 μM, no dFdC, read-out: IC50 of CDDP). Further, the concentration for half-maximal inhibition (IC50) with BxPC3 (BxPC3, NSC-30049 1.0 μM, 0.025 μM dFdC, read-out: IC50 of CDDP) came out at 0.54 ± 0.06 µM; in the assay with BxPC3 (BxPC3, NSC-30049 1.0 μM, no dFdC, read-out: IC50 of CDDP) it was 1.38 ± 0.04 µM; in the assay with BxPC3 (BxPC3, NSC-30049 2.5 μM, 0.025 μM dFdC, read-out: IC50 of CDDP), 0.04 ± 0.001 µM; with BxPC3 (BxPC3, NSC-30049 2.5 μM, no dFdC, read-out: IC50 of CDDP), 0.26 ± 0.07 µM; in the assay with HPAC (HPAC, NSC-30049 0 μM, 0.025 μM dFdC, read-out: IC50 of CDDP), 13.8 ± 5.51 µM; in the assay with HPAC (HPAC, NSC-30049 0 μM, no dFdC, read-out: IC50 of CDDP), 14.1 ± 4.34 µM. Also, the IC50 with HPAC (HPAC, NSC-30049 0.5 μM, 0.025 μM dFdC, read-out: IC50 of CDDP) amounted to 0.02 ± 0.01 µM; with HPAC (HPAC, NSC-30049 0.5 μM, no dFdC, read-out: IC50 of CDDP), 14.5 ± 2.47 µM; with HPAC (HPAC, NSC-30049 1.0 μM, 0.025 μM dFdC, read-out: IC50 of CDDP), 0.01 ± 0.001 µM; in the assay with HPAC (HPAC, NSC-30049 1.0 μM, no dFdC, read-out: IC50 of CDDP) it was 11.6 ± 1.82 µM; in the assay with HPAC (HPAC, NSC-30049 2.5 μM, 0.025 μM dFdC, read-out: IC50 of CDDP) it was 0.01 ± 0.001 µM; in the assay on HPAC (HPAC, NSC-30049 2.5 μM, no dFdC, read-out: IC50 of CDDP) it was 4.71 ± 1.24 µM. Further, the IC50 in the assay with Mia-PaCa2 (Mia-PaCa2, NSC-30049 0 μM, 1 μM dFdC, read-out: IC50 of CDDP) was found to be 22.2 ± 1.15 µM; in the assay with Mia-PaCa2 (Mia-PaCa2, NSC-30049 0 μM, no dFdC, read-out: IC50 of CDDP) it was 22.3 ± 1.1 µM; in the assay on Mia-PaCa2 (Mia-PaCa2, NSC-30049 0.5 μM, 1 μM dFdC, read-out: IC50 of CDDP), 0.09 µM; in the assay with Mia-PaCa2 (Mia-PaCa2, NSC-30049 0.5 μM, no dFdC, read-out: IC50 of CDDP), 14.3 ± 0.49 µM; with Mia-PaCa2 (Mia-PaCa2, NSC-30049 1.0 μM, 1 μM dFdC, read-out: IC50 of CDDP), 0.07 µM; with Mia-PaCa2 (Mia-PaCa2, NSC-30049 1.0 μM, no dFdC, read-out: IC50 of CDDP), 13.4 ± 1.33 µM. Further, the half-inhibitory concentration (IC50) with Mia-PaCa2 (Mia-PaCa2, NSC-30049 2.5 μM, 1 μM dFdC, read-out: IC50 of CDDP) is 0.07 µM; with Mia-PaCa2 (Mia-PaCa2, NSC-30049 2.5 μM, no dFdC, read-out: IC50 of CDDP), 12.2 ± 1.12 µM; with AsPC1 (AsPC1, NSC-30049 0 μM, 1 μM dFdC, read-out: IC50 of CDDP), 3.19 ± 0.28 µM; in the assay on AsPC1 (AsPC1, NSC-30049 0 μM, no dFdC, read-out: IC50 of CDDP), 3.49 ± 0.13 µM; in the assay with AsPC1 (AsPC1, NSC-30049 0.5 μM, 1 μM dFdC, read-out: IC50 of CDDP) it was 0.64 ± 0.08 µM; with AsPC1 (AsPC1, NSC-30049 0.5 μM, no dFdC, read-out: IC50 of CDDP) it was 2.2 ± 0.22 µM. Moreover, the IC50 is 0.11 ± 0.09 µM in the assay on AsPC1 (AsPC1, NSC-30049 1.0 μM, 1 μM dFdC, read-out: IC50 of CDDP); 2.09 ± 0.19 µM in the assay with AsPC1 (AsPC1, NSC-30049 1.0 μM, no dFdC, read-out: IC50 of CDDP); 0.004 ± 0.0001 µM in the assay on AsPC1 (AsPC1, NSC-30049 2.5 μM, 1 μM dFdC, read-out: IC50 of CDDP); 0.2 ± 0.01 µM in the assay on AsPC1 (AsPC1, NSC-30049 2.5 μM, no dFdC, read-out: IC50 of CDDP).
